Experimental data from US20260009064A1, “STEROL PRODUCTION IN YEAST” (APIX BIOSCIENCES, priority 2021, published 2026).

System: managed honeybee colonies
Assay: Artificial diets with dried engineered yeast powder fed to managed honeybee colonies (APIDEA hives, three months)
Assay type: in vivo
Conditions: inferred from platform strain diet versus wild-type yeast diet
Protocol: Yeast strains ST4842 (wild-type, containing ergosterol), ST11005 (platform strain engineered to produce tetrahymanol, containing ergosterol and tetrahymanol) and ST12178 (mixed sterol producing strain producing desired phytosterols and tetrahymanol) were cultivated by 5-L fed-batch fermentation as described above. At the end of fermentation, the yeast biomass was recovered from the culture by centrifugation (4000×g, 20 min) and washed with deionized water. The biomass was heat-inactivated and dried (60° C. for a minimum of 24 h). The dried material was ground to a fine powder and stored at −20° C. until further use.
The yeast biomass was then incorporated at 20% w/w into a holidic diet designed to provide additional protein, lipid, sugar, vitamins and minerals. […]
Honeybee colonies were maintained for three months in APIDEA hives (Styrofoam queen mating mini nucleus hives, (Paynes Southdown Bee Farms Ltd, West Sussex. UK) made up of one brood box with five frames and a top feeder with a hole for petty delivery. Hives were maintained within a closed glasshouse environment designed to negate bee escape. Hives were distributed across two rooms of the glasshouse, with varying orientation. Feeders with 30% w/v sugar solution and water were distributed inside the glasshouse and replenished as required. Regular temperature and humidity measurements were recorded on a datalogger. […]

In the case of CC1(C)CCC[C@]2(C)[C@H]3CC[C@@H]4[C@@]5(C)CC[C@H](O)C(C)(C)[C@@H]5CC[C@@]4(C)[C@]3(C)CC[C@@H]12 [tetrahymanol], the “adverse effects in honeybee colonies” value is reported as “does not have adverse effects”.
